Entries after “also recorded” stand apart in the source; their conditions may differ.
What was measured:
[1] = plasma protein binding, rat; type: in vitro ADME; settings: in vitro
[2] = plasma protein binding, dog; type: in vitro ADME; settings: in vitro
[3] = plasma protein binding, human; type: in vitro ADME; settings: in vitro
[4] = target: T1, CYP2C8 (Homo sapiens, UniProt P10632); assay: CYP inhibition in vitro; type: in vitro ADME
T1 sequence (P10632 1-490): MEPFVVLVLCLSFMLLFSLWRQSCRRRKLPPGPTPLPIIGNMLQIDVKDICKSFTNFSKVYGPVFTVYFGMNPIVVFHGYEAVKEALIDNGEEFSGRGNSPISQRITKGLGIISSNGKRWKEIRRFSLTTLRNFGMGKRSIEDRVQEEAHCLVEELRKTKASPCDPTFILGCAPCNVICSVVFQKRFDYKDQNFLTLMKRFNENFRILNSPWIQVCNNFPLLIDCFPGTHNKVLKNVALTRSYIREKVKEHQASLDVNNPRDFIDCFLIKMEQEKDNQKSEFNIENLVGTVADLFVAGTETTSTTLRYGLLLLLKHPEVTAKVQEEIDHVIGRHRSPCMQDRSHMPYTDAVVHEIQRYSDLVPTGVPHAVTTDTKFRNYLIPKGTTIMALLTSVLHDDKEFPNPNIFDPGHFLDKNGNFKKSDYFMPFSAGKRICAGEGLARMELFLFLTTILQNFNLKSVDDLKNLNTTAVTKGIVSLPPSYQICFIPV

[5] = target: CYP2C9 (Homo sapiens, UniProt P11712); assay: CYP inhibition in vitro; type: in vitro ADME
Chain of CYP2C9 (P11712 whole entry): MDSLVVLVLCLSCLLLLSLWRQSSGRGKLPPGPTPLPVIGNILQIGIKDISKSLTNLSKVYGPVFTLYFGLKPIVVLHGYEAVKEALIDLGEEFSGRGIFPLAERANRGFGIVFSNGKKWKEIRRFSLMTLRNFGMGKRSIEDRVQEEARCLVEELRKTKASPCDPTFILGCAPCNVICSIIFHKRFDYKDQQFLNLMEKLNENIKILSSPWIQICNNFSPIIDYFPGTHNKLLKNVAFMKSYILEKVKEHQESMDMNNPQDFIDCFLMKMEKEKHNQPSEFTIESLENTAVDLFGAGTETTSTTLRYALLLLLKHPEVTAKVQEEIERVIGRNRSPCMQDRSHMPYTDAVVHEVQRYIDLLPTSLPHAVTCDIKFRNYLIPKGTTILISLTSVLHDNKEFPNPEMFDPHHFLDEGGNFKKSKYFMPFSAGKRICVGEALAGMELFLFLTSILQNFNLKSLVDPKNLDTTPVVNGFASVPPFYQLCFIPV

[6] = Phase 1 Part 1 (SAD) plasma PK incl. food effect; type: in vivo, human; settings: for AUC0-24, geometric least-squares mean / AUC0-inf, geometric least-squares mean / AUC0-last, geometric least-squares mean / Cmax, geometric least-squares mean: 15 mg single dose; for AUC0-24 / AUC0-inf / AUC0-last / Cmax / Tmax / t1/2: Part 1 SAD; for AUC0-24 / AUC0-inf / AUC0-last / Cmax: geometric mean (CV%); for Tmax / t1/2: median
Experimental: Four sequential SAD cohorts were dosed.
Escalation to the next higher dose level in Part 1 occurred only after satisfactory review of clinical safety and pharmacokinetic data. […] Subjects received the same study drug and dose (Compound A or placebo) in both dosing periods.
For each cohort of Part 1, the daily dose of study drug was administered as a single dose (1 time daily or QD). In Part 1 of the study, following a screening period to determine eligibility, subjects in each cohort entered the Phase 1 clinical research unit (CRU) on the afternoon of Day −1. Study eligibility was re-confirmed upon admission to the CRU, and subjects remained in the CRU overnight prior to dosing on Day 1. Following Day 1, subjects remained in the CRU for an additional 72 hours post-dose (i.e., discharge on Day 4) to enable collection of plasma and urine for PK samples and other study assessments. Subjects were discharged from the CRU following plasma PK sample collection on Day 4 and returned on Day 16 (+2 days) for a final follow-up visit.
Serial venous blood samples were withdrawn via an indwelling cannula or by venipuncture according to the schedule in Tables 4 and 5 for Parts 1 and 2, respectively. Samples were collected into 4 mL lithium heparin tubes. The acceptable deviations from the nominal blood sampling times in Part 1 and Part 2 are as follows: the pre-dose blood sample will be taken ≤1 hour before dosing; 0 to 1 hour post-dose samples will be taken within +2 minutes of the nominal post-dose sampling time; >1 to 12 hours post-dose samples will be taken within +10 minutes of the nominal post-dose sampling time; and >12 hours post-dose samples will be taken within +30 minutes of the nominal post-dose sampling time if subjects are resident in the clinic. […]
In all derivations of PK parameters, 0 will be substituted for concentrations below the quantification limit (BQL) of the assay. Samples that are BQL but are between 2 samples with detectable concentrations will be excluded from PK analysis.
Dose proportionality was evaluated over all fasted doses within a study part based upon AUC0-inf (Part 1), AUCtau (Part 2), AUC0-t, and Cmax using the power model. The analysis was performed for Day 1 (Parts 1 and 2) and Day 7 (Part 2).
Dose proportionality for PK parameters was assessed by restricted maximum likelihood using SAS PROC MIXED (SAS STAT software, Cary N.C.). The mean slope was estimated from the power model and the corresponding 90% confidence interval (CI) calculated. Dose proportionality was also examined using an analysis of variance (ANOVA) method, where PK parameters for each dose were compared with a reference dose on a pair-wise basis. The ratio of geometric least squares (GLS) means and the corresponding 90% CI was estimated for each PK parameter of interest.
Mixed-effects models were constructed with treatment fitted as a fixed effect and subject fitted as a random effect to provide point estimates for the ratios of PK parameters under fed relative to fasted conditions and their associated 90% CI.

[7] = Part 1 cohort 4, 15 mg single dose

## COc1cc(-n2cnc(Nc3nc(N4CCC[C@H]4C(N)=O)nc4sccc34)c2)cc(OC)c1OC.O=C(O)CC(O)(CC(=O)O)C(=O)O [Compound A]
[1]
  plasma protein binding: ≥ 99.9%
[2]
  plasma protein binding: ≥ 99.9%
[3]
  plasma protein binding: ≥ 99.9%
[4]
  CYP2C8 inhibition: is an inhibitor
[5]
  CYP2C9 inhibition: is an inhibitor
[6]; fasted
  AUC0-24, geometric least-squares mean: 1975,63 ng · h/mL
  AUC0-inf, geometric least-squares mean: 2075.34 ng·h/mL
  AUC0-last, geometric least-squares mean: 2019.55 ng·h/mL
  Cmax, geometric least-squares mean: 272.80 ng/mL
[6]; fed
  AUC0-24, geometric least-squares mean: 1742.05 ng·h/mL
  AUC0-inf, geometric least-squares mean: 2087.05 ng·h/mL
  AUC0-last, geometric least-squares mean: 2015.24 ng·h/mL
  Cmax, geometric least-squares mean: 199.50 ng/mL
[6]; Part 1, all cohorts except cohort 1 (5 mg dose)
  detectability in plasma: remained detectable over the entire 72-hour data collection period
[6]; Part 1, all fasted cohorts
  median time to maximum concentration (Tmax): approximately 2 hours
[6]; Part 1, single oral doses 5 to 25 mg, healthy subjects
  dose proportionality of plasma exposure: exhibits dose proportionality; also recorded: approximately linear and dose proportional
[6]; 5 mg single oral dose, fasted
  AUC0-24: 686.9 (30.7) ng · h/mL
  AUC0-inf: 755.7 (29.9) ng · h/mL
  AUC0-last: 717.0 (31.3) ng · h/mL
  Cmax: 94.24 (45.2) ng/mL
  Tmax: 2.011 h
  t1/2: 6.833 h
[6]; 10 mg single oral dose, fasted
  AUC0-24: 1545 (18.9) ng · h/mL
  AUC0-inf: 1662 (17.3) ng · h/mL
  AUC0-last: 1579 (18.8) ng · h/mL
  Cmax: 234.3 (26.1) ng/mL
  Tmax: 2.013 h
  t1/2: 5.753 h
[6]; 15 mg single oral dose, fasted
  AUC0-24: 1976 (16.6) ng · h/mL
  AUC0-inf: 2214 (24.3) ng · h/mL
  AUC0-last: 2178 (24.8) ng · h/mL
  Cmax: 272.8 (42.5) ng/mL
  Tmax: 2.009 h
  t1/2: 7.639 h
[6]; 15 mg single oral dose, fed
  AUC0-24: 1742 (17.6) ng · h/mL
  AUC0-inf: 1978 (21.4) ng · h/mL
  AUC0-last: 1898 (24.3) ng · h/mL
  Cmax: 199.5 (41.2) ng/mL
  Tmax: 4.023 h
  t1/2: 6.688 h
[6]; 25 mg single oral dose, fasted
  AUC0-24: 3188 (14.2) ng · h/mL
  AUC0-inf: 3517 (17.0) ng · h/mL
  AUC0-last: 3475 (17.8) ng · h/mL
  Cmax: 474.1 (37.1) ng/mL
  Tmax: 2.071 h
  t1/2: 7.502 h
[6]; [7]
  GLSM AUC0-last and GLSM AUC0-inf fasted vs. fed: approximately equivalent
  Tmax, median of paired differences (95% CI) fed vs. fasted: 2.00 (0.99, 10.00)
  decrease of GLSM AUC0-24 after high-fat meal vs fasted: 12%
  decrease of GLSM Cmax after high-fat meal vs fasted: 27%
[6]; Part 1 single ascending oral dose cohorts (FIG. 2)
  dose proportionality of single dose Cmax: approximately linear and dose-proportional
[6]; Part 1 single ascending oral dose cohorts (FIG. 3)
  dose proportionality of single dose AUC0-24: approximately linear and dose-proportional
